Source: patent US9642922B2, “Caspase-triggered nano-aggregation probes and methods of use” (The Board of Trustees of the Leland Stanford Junior …, priority 2013, dated 2017)
Marks after values point to notes of the source that are not given here.

Tests used:
[1] = system: Membrane Potential; settings: cited from earlier work
[2] = TEM of nano-aggregates after incubation with caspase-3; assay type: physicochemical; settings: after caspase-3 incubation
Description: FIG. 7C is a digital TEM image of nano-aggregates after incubation C-SNAF (50 μM) with recombinant human caspase-3 (4.9×10^−3 U/mL) overnight at 37° C. in caspase-3 buffer; scale bar, 1 μm.
No nano-aggregation was found in either of the control probe solutions after incubation with caspase-3.

[3] = system: HeLa tumor xenograft; experiment: PET imaging of HeLa tumor xenograft-bearing nude mice; assay type: in vivo, mouse; settings: for uptake ratio between tumor and muscle (T/M): treated tumors
Description: One group of animals was scanned at baseline (before treatment) and 4 days post treatment with 0.2 mg doxorubicin injected into the tumor. On the day of scanning, the animals were moved from their housing area to the PET scanner around 1 h prior to the experiment. They were constrained shortly in a tail veiner and injected intravenously, with 440±97 μCi (16±3 MBq) [^18F]C-SNAT formulation. They were anesthetized with 2% isoflurane shortly before placement in an R4 microPET scanner (Siemens Medical Solutions, USA). The anesthesia were continued with 2% isoflurane doing 5 min of acquisition. Scans using the control tracer 1-D (173±73 μCi/9±4 Mbq in 200 μL formulation) were carried out in a similar manner using two groups (one baseline and one treated) instead of the same animals at baseline and after treatment. The images were reconstructed using a standard 2D reconstruction without attenuation correction.
The reconstructed images were analyzed by making two volumes of interest (VOI), one on the tumor and one located on the left shoulder corresponding to muscle/bone mixture. The percent of injected dose per gram tissue (% ID/g) was calculated in each VOI and the ratio between tumor and muscle uptake was calculated based on this uptake (uptake in tumor/uptake in muscle region). The effect of treatment was calculated as the difference in uptake of [^18F]C-SNAT at baseline and after treatment.
Evaluation of activatable PET tracer 1 and control tracer 1-D for PET imaging of caspase-3 activity in vivo was performed in HeLa tumor xenograft-bearing nude mice. Tumors were implanted and grown for a minimum of 10 d before receiving intratumoral injection of 0.2 mg DOX (20 μL). 1 or 1-D (5-15 MBq/135-405 μCi) was injected through the tail vein for PET imaging 4 d post treatment. Static PET scans (5 min) were performed 65, 125 and 182 mins post tracer injection.

[4] = system: apoptotic HeLa cells; experiment: Cell uptake of tracer 1 in HeLa cells; assay type: cell-based, human
Description: HeLa cells (cultured in DMEM with 10% FBS and 1% ampicillin) were grown in a 6 well plate culture dish for 24 h. The wells were then divided into 3 groups. Group 1 wells were cultured normally for 24 h, then the medium was changed and the cells were cultured for another 24 h. Group 2 and 3 wells were cultured with 2 μM doxorubicin (DOX) for 24 h, then the medium was changed and the cells were cultured for another 24 h, group 2 in normal culture medium without doxorubicin and group 3 in normal culture medium without doxorubicin but together with 50 μM Z-VAD-FMK, a caspase-3 inhibitor.
After 48 h, 10 μCi (0.37 MBq) of 1 were added to all three groups and incubated for additional 4 h. Then the medium was removed, the cells washed 3 times with phosphate buffered saline, and 1 mL of Tryp-LETM Express was added and the cells were left for 1-2 min to allow to detach. The cell/Tryp-LE solution was counted in a gamma counter and the radioactivity was normalized to the protein concentration (determined by comparison with BSA standards in each vial.

[5] = molecular target: T1, caspase-3 (Homo sapiens, UniProt P42574); experiment: Incubation of PET tracer with recombinant caspase-3, radio-HPLC; assay type: biochemical; settings: within 1 h, in buffer
T1 sequence (P42574 29-175 limits assumed): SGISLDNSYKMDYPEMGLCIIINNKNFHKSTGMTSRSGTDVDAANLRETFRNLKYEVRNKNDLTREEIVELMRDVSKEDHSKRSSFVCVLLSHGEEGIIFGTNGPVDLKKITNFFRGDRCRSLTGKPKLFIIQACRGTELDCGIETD
T1 sequence (P42574 176-277 limits assumed): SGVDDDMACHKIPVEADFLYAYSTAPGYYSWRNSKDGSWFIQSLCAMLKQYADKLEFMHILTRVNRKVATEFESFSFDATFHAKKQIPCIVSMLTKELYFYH
Description: To evaluate the activatable PET tracer 1 for caspase-3 detection, it was first incubated with recombinant caspase-3 in buffer.

[6] = Stability of PET tracers in mouse serum; assay type: in vitro ADME; settings: 1 h incubation, 37° C.
Description: To the mouse serum (500 μL) 100 μL (approximately 100 μCi/3.7 MBq) of radioactive sample was added and the mixture was incubated at 37° C. At each time point, 100 μL of sample was taken and after mixing with 100 μL of acetonitrile was centrifuged at 9,400×g for 5 min. The resulting supernatants were collected, and an aliquot of each supernatant (100 μL) was diluted with 100 μL of water and analyzed via the same HPLC method used for quality control (fitted with a highly sensitive positron detector for radioactivity). The percent ratio of intact compound to the total radioactivity on the HPLC chromatogram was calculated as %=[(peak area for intact compound)/(total peak area)]×100.

[7] = Ex vivo biodistribution of [18F]C-SNAT; assay type: in vivo, mouse; settings: for Ratio of % ID/g over muscle ± SEM: 2 h post injection
Description: Mice were administered [^18F]C-SNAT (100-200 μCi/3.7-7.4 MBq in 100-200 μL of 0.9% saline solution) via tail vein injection and then euthanized by bilateral thoracotomy under anesthesia at 2 h after injection of tracer (n=3). All samples (tumor, heart, whole brain, gallbladder, kidney, liver, lung, muscle, bone, spleen, whole blood) were removed quickly following euthanasia and placed in pre-weighed test tubes. Standard solutions of the tracer were prepared by diluting approximately 100 μCi (3.7 MBq) tracer in 100 mL of water, of which 1 mL of aliquots were used for reference counting.
The test tubes containing tissue samples were weighed and the radioactivity was measured by an automated gamma counter (Cobra Model 5002, Packard, USA) along with the standard solutions.

CC(CCCCC[18F])(C(=O)O)C(=O)O [[^18F]ML-10]
% ID/g at target site ([1]; PET imaging, cerebral stroke): 0.3 ± 0.1 % ID/g | Treated/Untreated ([1]; stroke and non-stroke region in same animal): 2.3^f

CC[N+]1=C(C=CC=CC=C2N(CCCCCC(=O)NCCCCC3NC(=O)C4CSC(=N4)c4ccc5cc(ccc5n4)OCCCNC(=O)C4CSC(=N4)c4nc5ccc(cc5s4)NC3=O)c3ccc4c(S(=O)(=O)O)cc(S(=O)(=O)O)cc4c3C2(C)C)C(C)(C)c2c1ccc1c(S(=O)(=O)[O-])cc(S(=O)(=O)O)cc21 (stereo not shown) [C-SNAF-cycl]
average diameter of nano-aggregates (TEM) [2]: 174±44 nm

CCSSCC(NC(=O)[C@H](CC(=O)O)NC(=O)[C@@H](NC(=O)[C@H](CCC(=O)O)NC(=O)[C@H](CC(=O)O)NC(C)=O)C(C)C)C(=O)NC(Cc1cn(CCOCC[18F])nn1)C(=O)Nc1ccc2nc(C3=N[C@@H](C(=O)NCCCOc4ccc5nc(C#N)ccc5c4)CS3)sc2c1 (stereo partly shown) [[^18F]C-SNAT]
uptake difference between baseline and treated ([3]; 65 min): 0.36±0.15 % ID/g | uptake difference between baseline and treated ([3]; 182 min): 0.63±0.11 % ID/g | uptake in tumor ([3]; DOX treated, 65 min): 1.17±0.17 % ID/g | uptake in tumor ([3]; DOX treated, 182 min): 1.29±0.07 % ID/g | uptake in tumor ([3]; baseline, 65 min): 0.81±0.28 % ID/g | uptake in tumor ([3]; baseline, 182 min): 0.67±0.24 % ID/g | Target/Background ([3]; maximum value at the apoptotic tissue): 7.0 | time course of uptake in apoptotic tumors ([3]; mouse, in vivo): trend of increasing uptake over times | % ID/g at target site ([3]; mouse, tumor treatment, PET imaging): 1.3 ± 0.1 % ID/g | Treated/Untreated ([3]; target uptake ratio between pre and post treatment in same animal): 1.9^b | uptake ratio between tumor and muscle (T/M) ([3]; 65 min): 3.30 fold | uptake ratio between tumor and muscle (T/M) ([3]; 182 min): 7.00 fold | retained 18F activity in Dox-treated cells with caspase-3 inhibitor ([4]; Dox 2 μM plus Z-VAD-fmk): 1.3 fold | retained 18F activity in Dox-treated versus non-treated cells ([4]; Dox 2 μM, 4 h tracer incubation): 2.2 fold | tracer cyclized by recombinant caspase-3 [5]: 90% | intact tracer in mouse serum [6]: 60% | Ratio of % ID/g over muscle ± SEM ([7]; Bone): 2.4 ± 1.5 | Ratio of % ID/g over muscle ± SEM ([7]; Brain): 0.5 ± 0.2 | Ratio of % ID/g over muscle ± SEM ([7]; Heart): 4.5 ± 2.4 | Ratio of % ID/g over muscle ± SEM ([7]; Kidney): 124.2 ± 46.6 | Ratio of % ID/g over muscle ± SEM ([7]; Liver): 22.9 ± 9.7 | Ratio of % ID/g over muscle ± SEM ([7]; Lung): 4.1 ± 1.8 | Ratio of % ID/g over muscle ± SEM ([7]; Muscle): 1.0 ± 0.5 | Ratio of % ID/g over muscle ± SEM ([7]; Plasma): 4.0 ± 1.8 | Ratio of % ID/g over muscle ± SEM ([7]; Spleen): 1.7 ± 0.7 | Ratio of % ID/g over muscle ± SEM ([7]; Tumor): 5.6 ± 2.3 | Ratio of % ID/g over muscle ± SEM ([7]; Whole Blood): 5.1 ± 2.4 | crossing of the blood-brain barrier ([7]; low uptake in brain tissue, 120 minutes post injection): could not cross the blood-brain barrier
